Reference: patent US9809587B2, “Pesticidally active heterocyclic derivatives with sulphur containing substituents” (Syngenta Participations AG, priority 2014, dated 2017)

Assays:
Assay type in all cases: in vivo
[1] = tested on: Myzus persicae (Green Peach Aphid); test: Myzus persicae (green peach aphid), sprayed sunflower leaf discs; conditions: foliar, 144 h, application rate of 200 ppm, mixed ages on sunflower leaf discs, 6 days after infestation
Description: Example B4: Myzus persicae (Green Peach Aphid)
(§1) Sunflower leaf discs were placed on agar in a 24-well microtiter plate and sprayed with aqueous test solutions prepared from 10′000 ppm DMSO stock solutions. After drying, the leaf discs were infested with an aphid population of mixed ages. The samples were assessed for mortality 6 days after infestation.

[2] = tested on: Plutella xylostella (Diamond Back Moth); test: Plutella xylostella (diamond back moth), treated artificial diet; conditions: 120 h, application rate of 200 ppm, L2 larvae on artificial diet, 5 days after infestation, read-out: effect in at least one of the two categories (mortality or growth inhibition)
Summary of the method: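 Artificial diet treated with aqueous dilutions of DMSO stocks (10′000 ppm stock), dried, then infested with 10-15 L2 larvae per well. Mortality and growth inhibition assessed versus untreated controls 5 days after infestation.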

[3] = tested on: Diabrotica balteata (Corn Root Worm); test: Diabrotica balteata (corn root worm), sprayed maize sprouts; conditions: 96 h, application rate of 200 ppm, L2 larvae on maize sprouts, 4 days after infestation
Description: Example B2: Diabrotica balteata (Corn Root Worm)
Maize sprouts, placed on an agar layer in 24-well microtiter plates were treated with aqueous test solutions prepared from 10′000 ppm DMSO stock solutions by spraying. After drying, the plates were infested with L2 larvae (6 to 10 per well). The samples were assessed for mortality and growth inhibition in comparison to untreated samples 4 days after infestation.

[4] = tested on: Euschistus heros (Neotropical Brown Stink Bug); test: Euschistus heros (neotropical brown stink bug), sprayed soybean leaf; conditions: 120 h, application rate of 200 ppm, N-2 nymphs on soybean leaf, 5 days after infestation
Description: Example B3: Euschistus heros (Neotropical Brown Stink Bug)
Soybean leaf on agar in 24-well microtiter plates were sprayed with aqueous test solutions prepared from 10′000 ppm DMSO stock solutions. After drying the leaf were infested with N-2 nymphs. The samples were assessed for mortality in comparison to untreated samples 5 days after infestation.

[5] = tested on: Aedes aegypti (Yellow Fever Mosquito); test: Activity against Aedes aegypti (yellow fever mosquito), dried deposits in tissue culture plates; conditions: application rate of 200 ppm in ethanol, adult females, after 48 h
Description: Example B12: Activity Against Aedes aegypti (Yellow Fever Mosquito)
Test solutions, at an application rate of 200 ppm in ethanol, were applied to 12-well tissue culture plates. Once the deposits were dry, five, two to five days old adult female Aedes aegypti were added to each well, and sustained with a 10% sucrose solution in a cotton wool plug. Assessment of knockdown was made one hour after introduction, and mortality was assessed at 24 and 48 hours after introduction.
The following compounds gave at least 80% control of Aedes aegypti after 48 h: […]

[6] = tested on: Spodoptera littoralis (Egyqptian Cotton Leaf Worm); test: Spodoptera littoralis (Egyptian cotton leaf worm), sprayed cotton leaf discs; conditions: foliar, 72 h, application rate of 200 ppm, L1 larvae on cotton leaf discs, 3 days after infestation
Summary of the method: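 Cotton leaf discs on agar were sprayed with aqueous dilutions made from 10′000 ppm DMSO stocks, then infested after drying with five L1 larvae. Mortality, anti-feedant effect and growth inhibition were scored against untreated discs 3 days after infestation. Control means at least one of these exceeds the untreated sample.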

[7] = tested on: Spodoptera littoralis (Egyqptian Cotton Leaf Worm); test: Spodoptera littoralis (Egyptian cotton leaf worm), compound in agar taken up by lettuce roots; conditions: 144 h, test rate of 12.5 ppm, uptake by lettuce roots from agar, 6 days after infestation, read-out: effect in at least one of the three categories (mortality, anti-feedancy, or growth inhibition)
Description: Example B8: Spodoptera littoralis (Egyqptian Cotton Leaf Worm)
Test compounds were applied by pipette from 10′000 ppm DMSO stock solutions into 24-well plates and mixed with agar. Lettuce seeds were placed on the agar and the multi well plate was closed by another plate which contains also agar. After 7 days the roots have absorbed the compound and the lettuce has grown into the lid plate. The lettuce leafs were now cut off into the lid plate. Spodoptera eggs were pipetted through a plastic stencil on a humid gel blotting paper and the plate closed with it. The samples were assessed for mortality, anti-feedant effect and growth inhibition in comparison to untreated samples 6 days after infestation.
The following compounds gave an effect of at least 80% in at least one of the three categories (mortality, anti-feedancy, or growth inhibition) at a test rate of 12.5 ppm: […]

[8] = tested on: Bemisia tabaci (Cotton White Fly); test: Bemisia tabaci (cotton white fly), sprayed cotton leaf discs; conditions: foliar, 144 h, application rate of 200 ppm, adult white flies on cotton leaf discs, 6 days after incubation
Description: Example B1: Bemisia tabaci (Cotton White Fly)
Cotton leaf discs were placed on agar in 24-well microtiter plates and sprayed with aqueous test solutions prepared from 10′000 ppm DMSO stock solutions. After drying the leaf discs were infested with adult white flies. The samples were checked for mortality 6 days after incubation.

[9] = tested on: Frankliniella occidentalis (Western Flower Thrips); test: Frankliniella occidentalis (western flower thrips), sprayed sunflower leaf discs; conditions: foliar, 168 h, application rate of 200 ppm, mixed ages on sunflower leaf discs, 7 days after infestation
Description: Example B11: Frankliniella occidentalis (Western Flower Thrips)
as §1, with “in” for “in a”, “plates” for “plate”, “[…]” for “10′000 ppm”, “drying” for “drying,”, “a Frankliniella” for “an aphid”, “7” for “6”

[10] = tested on: Myzus persicae (Green Peach Aphid); test: Myzus persicae (green peach aphid), roots of pea seedlings in test solution; conditions: 144 h, test rate of 24 ppm, roots of infested pea seedlings in test solution, 6 days
Description: Example B5: Myzus persicae (Green Peach Aphid)
Roots of pea seedlings infested with an aphid population of mixed ages were placed directly in the aqueous test solutions prepared from 10′000 DMSO stock solutions. The samples were assessed for mortality 6 days after placing seedlings in test solutions.

[11] = tested on: Thrips tabaci (Onion Thrips); test: Thrips tabaci (onion thrips), sprayed sunflower leaf discs; conditions: foliar, 144 h, application rate of 200 ppm, mixed ages on sunflower leaf discs, 6 days after infestation
Description: Example B10: Thrips tabaci (Onion Thrips)
as §1, with “in” for “in a”, “plates” for “plate”, “drying” for “drying,”, “a thrips” for “an aphid”

CCS(=O)(=O)c1cc(-n2ccc(C(F)(F)F)n2)cnc1-c1nc2cc(C(F)(F)F)ncc2n1C [Compound P2, 2-[3-ethylsulfonyl-5-[3-(trifluoromethyl)pyrazol-1-yl]-2-pyridyl]-3-methyl-6-(trifluoromethyl)imidazo[4,5-c]pyridine]
≥ 80%: mortality at 200 ppm [1] | percent effect (mortality or growth inhibition) at 200 ppm [2] | mortality at 200 ppm [3] | mortality at 200 ppm [4] | pest or weed control at 200 ppm [5] | percent control (mortality, anti-feedant effect or growth inhibition) at 200 ppm [6] | percent control (mortality, anti-feedancy or growth inhibition) at 12.5 ppm [7] | mortality at 200 ppm [8]

CCS(=O)(=O)c1cc(-c2ccc(C(F)(F)F)nc2)cnc1-c1nc2cc(C(F)(F)F)ncc2n1C [Compound P5]
≥ 80%: mortality at 200 ppm [1] | percent effect (mortality or growth inhibition) at 200 ppm [2] | mortality at 200 ppm [3] | mortality at 200 ppm [9] | mortality at 200 ppm [4] | percent control (mortality, anti-feedant effect or growth inhibition) at 200 ppm [6] | percent control (mortality, anti-feedancy or growth inhibition) at 12.5 ppm [7] | mortality at 200 ppm [8] | mortality at 24 ppm [10]

CCS(=O)(=O)c1cc(-c2ccccn2)cnc1-c1nc2cc(C(F)(F)F)ncc2n1C [Compound P18]
≥ 80%: mortality at 200 ppm [1] | percent effect (mortality or growth inhibition) at 200 ppm [2] | mortality at 200 ppm [9] | mortality at 200 ppm [4] | pest or weed control at 200 ppm [5] | percent control (mortality, anti-feedant effect or growth inhibition) at 200 ppm [6] | percent control (mortality, anti-feedancy or growth inhibition) at 12.5 ppm [7] | mortality at 24 ppm [10]

CCS(=O)(=O)c1cc(-c2ccc(C(F)(F)F)cn2)cnc1-c1nc2cc(C(F)(F)F)ncc2n1C [Compound P19]
≥ 80%: mortality at 200 ppm [1] | percent effect (mortality or growth inhibition) at 200 ppm [2] | mortality at 200 ppm [3] | mortality at 200 ppm [9] | mortality at 200 ppm [4] | pest or weed control at 200 ppm [5] | percent control (mortality, anti-feedant effect or growth inhibition) at 200 ppm [6] | percent control (mortality, anti-feedancy or growth inhibition) at 12.5 ppm [7] | mortality at 200 ppm [8]

CCS(=O)(=O)c1cc(-c2cccc[n+]2O)cnc1-c1nc2cc(C(F)(F)F)ncc2n1C [Compound P56]
≥ 80%: mortality at 200 ppm [1] | percent effect (mortality or growth inhibition) at 200 ppm [2] | mortality at 200 ppm [3] | mortality at 200 ppm [9] | mortality at 200 ppm [4] | percent control (mortality, anti-feedant effect or growth inhibition) at 200 ppm [6] | percent control (mortality, anti-feedancy or growth inhibition) at 12.5 ppm [7] | mortality at 24 ppm [10]

CCS(=O)(=O)c1cc(-c2ccnc(F)c2)cnc1-c1nc2cc(C(F)(F)F)ncc2n1C [Compound P70]
≥ 80%: mortality at 200 ppm [1] | percent effect (mortality or growth inhibition) at 200 ppm [2] | mortality at 200 ppm [3] | mortality at 200 ppm [9] | mortality at 200 ppm [4] | percent control (mortality, anti-feedant effect or growth inhibition) at 200 ppm [6] | percent control (mortality, anti-feedancy or growth inhibition) at 12.5 ppm [7] | mortality at 200 ppm [8] | mortality at 24 ppm [10]

CCS(=O)(=O)c1cc(-n2ccc(Cl)n2)cnc1-c1nc2cc(C(F)(F)F)ncc2n1C [Compound P88]
≥ 80%: mortality at 200 ppm [1] | percent effect (mortality or growth inhibition) at 200 ppm [2] | mortality at 200 ppm [3] | mortality at 200 ppm [4] | pest or weed control at 200 ppm [5] | percent control (mortality, anti-feedant effect or growth inhibition) at 200 ppm [6] | percent control (mortality, anti-feedancy or growth inhibition) at 12.5 ppm [7] | mortality at 200 ppm [8]

CCS(=O)(=O)c1cc(-c2ncccn2)ccc1-c1nc2cc(C(F)(F)F)ncc2n1C [Compound P89]
≥ 80%: mortality at 200 ppm [1] | percent effect (mortality or growth inhibition) at 200 ppm [2] | mortality at 200 ppm [3] | mortality at 200 ppm [9] | mortality at 200 ppm [4] | pest or weed control at 200 ppm [5] | percent control (mortality, anti-feedant effect or growth inhibition) at 200 ppm [6] | percent control (mortality, anti-feedancy or growth inhibition) at 12.5 ppm [7]

CCS(=O)(=O)c1cc(-n2ccc(C(F)(F)F)n2)ccc1-c1nc2cc(C(F)(F)F)ncc2n1C [Compound P90]
≥ 80%: mortality at 200 ppm [1] | percent effect (mortality or growth inhibition) at 200 ppm [2] | mortality at 200 ppm [3] | mortality at 200 ppm [4] | pest or weed control at 200 ppm [5] | percent control (mortality, anti-feedant effect or growth inhibition) at 200 ppm [6] | percent control (mortality, anti-feedancy or growth inhibition) at 12.5 ppm [7] | mortality at 200 ppm [8]

CCS(=O)(=O)c1cc(-c2ccc(C#N)cn2)cnc1-c1nc2cc(C(F)(F)F)ncc2n1C [Compound P91]
≥ 80%: mortality at 200 ppm [1] | percent effect (mortality or growth inhibition) at 200 ppm [2] | mortality at 200 ppm [3] | mortality at 200 ppm [9] | mortality at 200 ppm [4] | percent control (mortality, anti-feedant effect or growth inhibition) at 200 ppm [6] | percent control (mortality, anti-feedancy or growth inhibition) at 12.5 ppm [7] | mortality at 200 ppm [8] | mortality at 200 ppm [11]

CCS(=O)(=O)c1cc(-c2cc(Cl)ccn2)cnc1-c1nc2cc(C(F)(F)F)ncc2n1C [Compound P92]
≥ 80%: mortality at 200 ppm [1] | percent effect (mortality or growth inhibition) at 200 ppm [2] | mortality at 200 ppm [3] | mortality at 200 ppm [9] | mortality at 200 ppm [4] | pest or weed control at 200 ppm [5] | percent control (mortality, anti-feedant effect or growth inhibition) at 200 ppm [6] | percent control (mortality, anti-feedancy or growth inhibition) at 12.5 ppm [7]

CCS(=O)(=O)c1cc(-c2cc(C#N)ccn2)cnc1-c1nc2cc(C(F)(F)F)ncc2n1C [Compound P93]
≥ 80%: mortality at 200 ppm [1] | percent effect (mortality or growth inhibition) at 200 ppm [2] | mortality at 200 ppm [3] | mortality at 200 ppm [9] | mortality at 200 ppm [4] | pest or weed control at 200 ppm [5] | percent control (mortality, anti-feedant effect or growth inhibition) at 200 ppm [6] | percent control (mortality, anti-feedancy or growth inhibition) at 12.5 ppm [7]

CCS(=O)(=O)c1cc(-c2nccc(C#N)n2)cnc1-c1nc2cc(C(F)(F)F)ncc2n1C [Compound P101]
≥ 80%: mortality at 200 ppm [1] | percent effect (mortality or growth inhibition) at 200 ppm [2] | mortality at 200 ppm [3] | mortality at 200 ppm [4] | pest or weed control at 200 ppm [5] | percent control (mortality, anti-feedant effect or growth inhibition) at 200 ppm [6]

CCS(=O)(=O)c1cc(-c2ccnc(C(F)(F)F)n2)cnc1-c1nc2cc(C(F)(F)F)ncc2n1C [Compound P108]
≥ 80%: mortality at 200 ppm [1] | percent effect (mortality or growth inhibition) at 200 ppm [2] | mortality at 200 ppm [3] | mortality at 200 ppm [4] | pest or weed control at 200 ppm [5] | percent control (mortality, anti-feedant effect or growth inhibition) at 200 ppm [6] | percent control (mortality, anti-feedancy or growth inhibition) at 12.5 ppm [7] | mortality at 200 ppm [8]
